# Source: patent US20110002877A1, “PTEN Inhibitors Treat Neutropenia-Associated Pneumonia” (priority 2009, published 2011)
# System: circulating neutrophils
# Details: day 5; two i.p. injections, total 250 mg/kg (150 mg/kg day 1, 100 mg/kg day 4)
# Text: We first examined neutrophil recruitment and its bacteria-killing capability under neutropenic conditions. We induced neutropenia using a widely used chemotherapeutic drug, cyclophosphamide (Cy), which is used primarily to treat cancer.
# We also examined neutrophil recruitment and its bacteria-killing capability under neutropenic conditions. We induced neutropenia using a widely used chemotherapeutic drug, cyclophosphamide (Cy).
compound,measurement,value
"O=P1(N(CCCl)CCCl)NCCCO1 (stereo not shown) [Cy, cyclophosphamide]",fewer circulating neutrophils than the untreated group,approximately 90%
